US10500217B2 (LESLIE RAY MATTHEWS, M.D., LLC, priority 2018, dated 2019)

Test system: Glial cells (DBTRG-05MG; CRL-2020)
Test: Lactate dehydrogenase (LDH) cell death assay: percentage cell survival of glia cells with or without H2O2 exposure
Assay type: cell-based, human
Conditions: for Percentage Cell Survival (% ± SD), H202 Given Last (30 min before H202 given/pre-treatment) / Percentage Cell Survival (% ± SD), H202 (added 30 min after): H2O2 0.25M about 30 min after treatment; for Percentage Cell Survival (% ± SD), H202 Given 1st (30 min after H202 Given, mimics acute injury) / Percentage Cell Survival (% ± SD), H202 (added 30 min before): H2O2 0.25M about 30 min before treatment; for Percentage Cell Survival (% ± SD), Control: control (PBS) instead of H2O2; for Percentage Cell Survival (% ± SD), H202 given (30 min after treatment with Vitamin D) / Percentage Cell Survival (% ± SD), H202 Given (30 min before treatment with Vitamin D) / Percentage Cell Survival (% ± SD), Control (PBS): Table 3; for Percentage Cell Survival (% ± SD), H202 given (30 min after treatment with Vitamin D): H2O2 0.25M 30 min after treatment; for Percentage Cell Survival (% ± SD), H202 Given (30 min before treatment with Vitamin D): H2O2 0.25M 30 min before treatment; for Percentage Cell Survival (% ± SD), Control (PBS): no H2O2
Method: Glial cells were purchased from ATCC (DBTRG-05MG; CRL-2020) and were derived from the brain of a […] with glioblastoma. […] Glial cells were subcultured at a ratio of about 1:4 every 2 to 3 days. Cell death was measured by the CytoTox 96 Non-Radioactive Cytotoxicity Assay according to the manufacturer's instructions (Promega, Madison, Wis.). Culture medium (500 μl) was recovered from and incubated for about 30 min in the dark with a buffer containing NAD+, lactate, and tetrazolium. Lactate Dehydrogenase (LDH) converts lactate to pyruvate, generating NADH which reduces tetrazolium (yellow) to formazan (red), which is detected by […] (490 nm). LDH release, a marker for cell death, was expressed as a percentage of the LDH in the medium over the total LDH. Data was analyzed using a two-tailed t-test after applying ANOVA to the data. Differences were considered significant when p<0.01. Glia cells (10^6 cells) were plated in triplicates in 6-well plates. […] Percentage cell survival was calculated about 24 hours later using LDH assay. […] Glia cells (10^6 cells) were plated in triplicates in 6-well plates. […] Percentage cell survival was calculated about 24 hours later using LDH assay. […] Glia cells (10^6 cells) were plated in triplicates in 6-well plates. […] Percentage cell survival was calculated about 24 hours later using LDH assay.

[1] = Table 1, survival about 24 h later, 3 experiments
[2] = Table 2, Vitamin D3 (1/5), Hsp72 (1/5), Glutathione 200 mg/ml, 24 h, 4 experiments

Compound | Percentage Cell Survival (% ± SD), H202 Given Last (30 min before H202 given/pre-treatment) [1] [%] | Percentage Cell Survival (% ± SD), H202 Given 1st (30 min after H202 Given, mimics acute injury) [1] [%] | Percentage Cell Survival (% ± SD), Control [1] [%] | Percentage Cell Survival (% ± SD), H202 (added 30 min after) [2] [%] | Percentage Cell Survival (% ± SD), H202 (added 30 min before) [2] [%] | Percentage Cell Survival (% ± SD), Control [2] [%] | Percentage Cell Survival (% ± SD), H202 given (30 min after treatment with Vitamin D) (Vitamin D3 5 ng/m1, 24 h) [%] | Percentage Cell Survival (% ± SD), H202 Given (30 min before treatment with Vitamin D) (Vitamin D3 5 ng/m1, 24 h) [%] | Percentage Cell Survival (% ± SD), Control (PBS) (Vitamin D3 5 ng/m1, 24 h) [%] | Percentage Cell Survival (% ± SD), H202 given (30 min after treatment with Vitamin D) (Vitamin D3 25 ng/m1, 24 h) [%] | Percentage Cell Survival (% ± SD), H202 Given (30 min before treatment with Vitamin D) (Vitamin D3 25 ng/m1, 24 h) [%] | Percentage Cell Survival (% ± SD), Control (PBS) (Vitamin D3 25 ng/m1, 24 h) [%] | Percentage Cell Survival (% ± SD), H202 given (30 min after treatment with Vitamin D) (Vitamin D3 50 ng/m1, 24 h) [%] | Percentage Cell Survival (% ± SD), H202 Given (30 min before treatment with Vitamin D) (Vitamin D3 50 ng/m1, 24 h) [%] | Percentage Cell Survival (% ± SD), Control (PBS) (Vitamin D3 50 ng/m1, 24 h) [%] | Percentage Cell Survival (% ± SD), H202 Given (30 min before treatment with Vitamin D) (Vitamin D3 75 ng/m1, 24 h) [%] | Percentage Cell Survival (% ± SD), Control (PBS) (Vitamin D3 75 ng/m1, 24 h) [%] | Percentage Cell Survival (% ± SD), H202 given (30 min after treatment with Vitamin D) (Vitamin D3 100 ng/m1, 24 h) [%] | Percentage Cell Survival (% ± SD), H202 Given (30 min before treatment with Vitamin D) (Vitamin D3 100 ng/m1, 24 h) [%] | Percentage Cell Survival (% ± SD), Control (PBS) (Vitamin D3 100 ng/m1, 24 h) [%]
Hsp72: Endotoxin-free recombinant Hsp72 produced using the baculovirus expression vector system and expressed in insect cells | 48.54 ± 6.3 | 31.85 ± 9.2 | 96.88 ± 3.8 | 32.68 ± 7.5 | 21.57 ± 5.4 | 95.48 ± 5.1 | – | – | – | – | – | – | – | – | – | – | – | – | – | –
C=C1CC[C@H](O)C/C1=C/C=C1\CCC[C@]2(C)[C@@H]([C@H](C)CCCC(C)C)CC[C@@H]12 [Vitamin D3, Cholecalciferol] | 28.56 ± 8.9 | 15.27 ± 7.4 | 94.64 ± 4.6 | 12.68 ± 3.5 | 10.36 ± 2.3 | 97.28 ± 4.3 | 9.75 ± 3.6 | 6.22 ± 2.8 | 96.89 ± 4.5 | 13.09 ± 2.9 | 10.18 ± 2.2 | 98.56 ± 7.9 | 28.56 ± 3.9 | 15.27 ± 4.4 | 91.18 ± 6.8 | 22.94 ± 3.8 | 95.82 ± 6.2 | 60.11 ± 7.2 | 28.99 ± 6.9 | 97.41 ± 8.4
